Experimental data taken from patent publication US6352995B1, “Spiro-quinuclidine derivatives, their preparation and use” (Neurosearch A/S, priority 1997, dated 2002).
Where two headings read alike, the source gives them in different places.

What was measured:
[1] = target: nAChRs comprised of α4 and β2 subunits (3H-cytisine binding, cerebral cortex homogenate) (Rattus norvegicus, UniProt P09483+P12390); test: In vitro inhibition of 3H-cytisine binding
Procedure: In Vitro Inhibition of 3H-cytisine Binding
The predominant subtype with high affinity for nicotine is comprised of α4 and β2 subunits. nAChRs of the latter type can selectively be labelled by the nicotine agonist ^3H-cytisine.
Tissue Preparation: Preparations are performed at 0-4° C. unless otherwise indicated. […] The homogenate is centrifuged at 27,000×g for 10 min. The supernatant is discarded and the pellet is resuspended in fresh buffer and centrifuged a second time. The final pellet is resuspended in fresh buffer (35 ml per g of original tissue) and used for binding assays.
Assay: Aliquots of 500 μl homogenate are added to 25 μl of test solution and 25 μl of ^3H-cytisine (1 nM, final concentration), mixed and incubated for 90 min at 2° C. Non-specific binding is determined using (−)-nicotine (100 μM, final concentration). After incubation the samples are added 5 ml of ice-cold buffer and poured directly onto Whatman GF/C glass fibre filters under suction and immediately washed with 2×5 ml ice-cold buffer. The amount of radioactivity on the filters is determined by conventional liquid scintillation counting. Specific binding is total binding minus non-specific binding.
Results are given as IC50 values; the concentration (μM) that inhibit binding of the radioactive ligand by 50 %.

[2] = target: nAChR formed by the α7 subunit (3H-α-bungarotoxin binding, cerebral cortex homogenate) (Rattus norvegicus, UniProt Q05941); test: biochemical
Sequence of nAChR formed by the α7 subunit (3H-α-bungarotoxin binding, cerebral cortex homogenate) (Q05941 23-502): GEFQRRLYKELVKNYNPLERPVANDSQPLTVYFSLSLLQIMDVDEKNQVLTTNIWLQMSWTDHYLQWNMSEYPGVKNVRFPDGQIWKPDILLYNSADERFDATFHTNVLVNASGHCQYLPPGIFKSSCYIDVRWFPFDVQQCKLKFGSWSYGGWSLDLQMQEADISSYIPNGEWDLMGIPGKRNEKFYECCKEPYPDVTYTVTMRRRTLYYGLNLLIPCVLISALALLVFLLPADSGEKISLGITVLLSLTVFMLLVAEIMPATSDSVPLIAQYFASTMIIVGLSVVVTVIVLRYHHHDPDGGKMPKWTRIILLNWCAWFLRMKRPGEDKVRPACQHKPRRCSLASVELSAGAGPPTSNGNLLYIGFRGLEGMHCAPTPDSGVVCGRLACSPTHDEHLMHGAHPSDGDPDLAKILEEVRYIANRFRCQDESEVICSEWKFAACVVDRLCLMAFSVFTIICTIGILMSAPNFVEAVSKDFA

[3] = background statement; cited from earlier work
[4] = rat cerebral cortex, 1 nM 3H-cytisine, 90 min at 2° C., read-out: 3H-cytisine IC50

Sequence of nAChRs comprised of α4 and β2 subunits (3H-cytisine binding, cerebral cortex homogenate) (P09483 31-630): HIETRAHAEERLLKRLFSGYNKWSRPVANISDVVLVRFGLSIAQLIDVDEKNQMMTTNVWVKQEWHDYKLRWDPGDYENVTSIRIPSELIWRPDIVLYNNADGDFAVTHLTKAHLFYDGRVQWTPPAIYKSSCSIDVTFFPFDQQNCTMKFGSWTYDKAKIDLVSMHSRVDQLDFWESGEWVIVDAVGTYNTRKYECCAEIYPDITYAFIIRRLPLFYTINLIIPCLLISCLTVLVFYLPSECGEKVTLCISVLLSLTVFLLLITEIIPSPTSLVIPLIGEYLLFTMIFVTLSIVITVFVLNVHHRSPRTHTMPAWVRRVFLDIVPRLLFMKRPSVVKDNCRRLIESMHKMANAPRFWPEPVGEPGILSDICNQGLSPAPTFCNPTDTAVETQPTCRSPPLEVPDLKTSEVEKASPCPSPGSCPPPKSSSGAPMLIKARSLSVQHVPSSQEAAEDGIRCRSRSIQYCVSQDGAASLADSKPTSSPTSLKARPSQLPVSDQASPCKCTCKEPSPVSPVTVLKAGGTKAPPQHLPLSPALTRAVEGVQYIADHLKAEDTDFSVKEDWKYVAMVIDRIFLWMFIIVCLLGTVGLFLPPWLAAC
Sequence of nAChRs comprised of α4 and β2 subunits (3H-cytisine binding, cerebral cortex homogenate) (P12390 25-500): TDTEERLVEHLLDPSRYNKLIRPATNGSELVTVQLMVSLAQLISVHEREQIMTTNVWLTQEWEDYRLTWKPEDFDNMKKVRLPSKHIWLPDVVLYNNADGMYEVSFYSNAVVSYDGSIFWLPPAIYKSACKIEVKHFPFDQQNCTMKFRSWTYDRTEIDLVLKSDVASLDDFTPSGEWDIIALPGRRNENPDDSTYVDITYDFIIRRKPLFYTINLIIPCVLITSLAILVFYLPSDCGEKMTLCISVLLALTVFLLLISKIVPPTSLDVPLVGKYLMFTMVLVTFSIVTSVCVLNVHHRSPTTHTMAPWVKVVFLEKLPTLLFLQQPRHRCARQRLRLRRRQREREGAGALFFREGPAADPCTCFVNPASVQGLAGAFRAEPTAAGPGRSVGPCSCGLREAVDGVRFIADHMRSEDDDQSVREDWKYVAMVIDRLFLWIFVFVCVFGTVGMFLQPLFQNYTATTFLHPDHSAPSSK

| SMILES | IC50 [1, 4] | melting point | IC50 [2] | IC50 [1] | analgesic potency relative to morphine [3] |
| --- | --- | --- | --- | --- | --- |
| Cc1ccc2c(c1)OC1(CN3CCC1CC3)O2 (racemic) [Compound 2a, (±)-6-methyl-spiro[benzo-1,3-dioxolane-2,3′-quinuclidine]] | 23000 nM | 173 to 175 °C | 180 nM |  |  |
| CC(C)(C)c1ccc2c(c1)OC1(CN3CCC1CC3)O2 (racemic) [Compound 3a, (±)-6-t.-Butyl-spiro[benzo-1,3-dioxolane-2,3′-quinuclidine]] | > 10000 nM | 184 to 186 °C | 2300 nM |  |  |
| c1ccc2c(c1)OC1(CN3CCC1CC3)O2 [Compound 1a, Spiro[benzo-1,3-dioxolane-2,3-quinuclidine]] |  | 123 to 125 °C | 190 nM | 30000 nM |  |
| Clc1ccc(C2CC3CCC2N3)cn1 (stereo not shown) [Epibatidine] |  |  |  |  | ~500 times that of morphine |
